From patent US7807701B2, “Dibenzylamine compounds and pharmaceutical use thereof” (Japan Tobacco Inc., priority 2002, dated 2010)
pIC50: −log10 of the molar value.

Assays:
[1] = Concomitant use test with simvastatin in rabbits on high cholesterol food; type: in vivo, Japanese white rabbits; conditions: high cholesterol food for 15 days with simvastatin (0.002%) and/or Example 168 (0.2%), control group = 100%; for HDL3 cholesterol content (%): plasma HDL3 fraction; for ApoA-I content (%): plasma
Description: For the experiment, 10-week-old male Japanese white rabbits (manufactured by KITAYAMA LABES Co., Ltd.) were used. The animal was acclimated on normal food (RC-4, manufactured by Oriental Bio-Service Co.) and fasted for 24 hr and a high cholesterol food (0.25% cholesterol-added RC-4, manufactured by Oriental Bio-Service Co.) was given by 100 g/day per rabbit (preliminary feeding) for 3 days. On the next day of day 3 of preliminary feeding, blood was taken from the auricular artery before feeding, and the animals were grouped by 6 rabbits per group based on the parameters (HDL cholesterol content, total cholesterol content, triglyceride content) of plasma and body weight.
Foods were prepared (manufactured by Oriental Bio-Service Co.) by adding simvastatin (0.002%), compound (0.2%) of Example 168, or simvastatin (0.002%)+compound (0.2%) of Example 168 to a high cholesterol food, and each food was given to the grouped animals by 100 g/day per rabbit for 15 days. At 8 hr after feeding on day 15, the total blood was taken from the carotid artery under anesthesia, HDL cholesterol content, total cholesterol content and ApoA-I content in plasma were measured. The arteriosclerosis index was calculated from [(total cholesterol content-HDL cholesterol content)/HDL cholesterol content]. Furthermore, the HDL3 fraction was separated from plasma by ultracentrifugation and the cholesterol content of the fraction was measured. In Table, arteriosclerotic index, ApoA-1 content and HDL3 cholesterol content are shown based on the value of the control group as 100%.

CETP [2] = test: Inhibitory effect exo vivo on CETP activity in total plasma of normal hamster; conditions: single oral dose 3 mg/kg, blood taken 4 hr after administration, average values
Description: Potassium bromide (KBr) was added to plasma (40 mL) of healthy subject and the mixture was adjusted to have a specific density d=1.125 g/mL. The mixture was subjected to density gradient centrifugation (227,000×g, 4° C., 17 hr) and a fraction showing a specific density of d>1.125 g/mL (HDL3 fraction) was harvested. The obtained fraction was dialyzed against PBS solution [10 mmol/L Na2HPO4; 10 mmol/L NaH2PO4; 0.15 mol/L NaCl; […] (pH 7.4)]. Then, tritium-labeled cholesterol (37 MBq) was dissolved in 95% ethanol, gradually added to the above-mentioned HDL3 fraction with stirring and incubated at 37° C. for 18 hr. [By this operation, tritium-labeled cholesterol was esterified by the action of lecithin acyl transferase (LCAT) present on the HDL3 surface and taken up into HDL3 as tritium-labeled cholesteryl ester ([^3H]CE)]. After incubation, KBr was added, the mixture was adjusted to have a specific density d=1.21 g/mL, subjected to density gradient centrifugation (227,000×g, 4° C., 17 hr) and a fraction of specific density […] was harvested. The obtained fraction was dialyzed against the aforementioned PBS solution to give HDL3 incorporating [^3H]CE ([^3H]CE-HDL3, specific density: 1.125<d<1.21, specific activity: 10,000 dpm/μL), which was used as a donor lipoprotein.
(§1) The compound of the present invention was suspended in 0.5% methyl cellulose solution and orally administered once to a healthy hamster with a plastic gavage needle. Blood was taken at 2 or 4 hr after the administration and CETP activity in plasma was measured according to the following method.
The donor lipoprotein obtained above was added to hamster plasma (100 μL) to prepare [^3H]CE-HDL3-containing plasma (ca. 1,000 dpm/μL). The [^3H]CE-HDL3-containing plasma was dispensed to two microtubes by 25 μL each, and one was incubated at 37° C. and the other was incubated at 4° C. for 4 hr each. After ice-cooling, TBS solution (50 μl) containing 1 mol/L magnesium chloride and 2% dextran sulfate was added to each microtube and the mixture was thoroughly stirred. After keeping at […] for 30 min, the mixture was centrifuged (10,000×g, 4° C., 20 min), and the radioactivity in the obtained supernatant (HDL fraction) was measured with a liquid scintillation counter. The radioactivity of the [^3H]CE-HDL3-containing plasma was measured with a liquid scintillation counter, and taken as the total radioactivity. The transfer rate of [^3H]CE was calculated from the following formula using the total radioactivity (Total count), radioactivity by 37° C. incubation (37° C. count) and radioactivity by 4° C. incubation (4° C. count) of the sample of each individual and taken as the CETP activity. CETP activity(transfer ratio (%))={[(4° C. count)−(37° C. count)]/(Total count)}×100
The CETP activity inhibitory ratio of each compound administration group based on the CETP activity of the solvent administration group as 100% was calculated from the following formula and expressed in %.
CETP activity inhibitory ratio (%)=100−[(CETP activity of each compound administration group)/(CETP activity of solvent administration group)×100]

CETP [3] = target: T1, CETP (Homo sapiens, UniProt P11597); test: Inhibitory effect in vitro on CETP activity in total plasma; type: biochemical; conditions: plasma of healthy subject with [3H]CE-HDL3, 37° C., 4 hr; average values
T1 construct: The donor lipoprotein obtained above was added to plasma of healthy subject; from tissue; host or cells: whole plasma of healthy subject
T1 sequence (P11597 18-493): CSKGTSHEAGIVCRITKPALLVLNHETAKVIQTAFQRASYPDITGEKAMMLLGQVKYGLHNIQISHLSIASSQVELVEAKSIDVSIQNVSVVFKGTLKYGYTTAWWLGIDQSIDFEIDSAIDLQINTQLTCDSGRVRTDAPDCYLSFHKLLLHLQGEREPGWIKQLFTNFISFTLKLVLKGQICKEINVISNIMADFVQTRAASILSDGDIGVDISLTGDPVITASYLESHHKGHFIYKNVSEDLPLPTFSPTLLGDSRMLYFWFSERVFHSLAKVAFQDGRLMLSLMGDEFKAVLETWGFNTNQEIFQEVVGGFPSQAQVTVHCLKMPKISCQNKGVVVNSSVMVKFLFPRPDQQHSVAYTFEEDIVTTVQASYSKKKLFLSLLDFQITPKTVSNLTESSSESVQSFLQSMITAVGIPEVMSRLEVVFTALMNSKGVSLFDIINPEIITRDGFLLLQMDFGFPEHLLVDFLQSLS
Summary of the method: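 Healthy-donor plasma spiked with [3H]cholesteryl ester-labelled HDL3 (1,000 dpm/μL) was incubated with compound (DMF vehicle) for 4 hr at 37 °C or 4 °C. HDL was separated by MgCl2/dextran sulfate precipitation and supernatant radioactivity counted. IC50 is the concentration giving 50% inhibition of CETP activity.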

HDL cholesterol = test: Blood HDL cholesterol increasing effect in normal hamster; type: in vivo; conditions: single oral dose 3 mg/kg, versus solvent group, average values
Description: as §1
To the plasma (40 μL) obtained from the above-mentioned animal at 4 or 8 hr after the administration was added 15% polyethylene glycol solution (40 μL) and the mixture was thoroughly stirred. After keeping at room temperature for 10 min, the mixture was centrifuged (10,000×g, 4° C., 20 min) and the cholesterol content (HDL cholesterol content) of the obtained supernatant (HDL fraction) was measured. The increase ratio of the HDL cholesterol content of each compound administration group when the HDL cholesterol content of the solvent administration group as 100% was calculated from the following formula and expressed in %. HDL cholesterol increase ratio(%)=[(HDL cholesterol content of each compound administration group/HDL cholesterol content of solvent administration group)×100]−100

Row | SMILES | Arteriosclerotic index (%) [1] [%] | HDL3 cholesterol content (%) [1] [%] | ApoA-I content (%) [1] [%] | CETP activity (%) 4 (hr later) (CETP [2]) [%] | pIC50 (CETP [3]) | HDL cholesterol increase content (%) 4 (hr later) (HDL cholesterol; 4 hr after administration) [%] | HDL cholesterol increase content (%) 8 (hr later) (HDL cholesterol; 8 hr after administration) [%]
1 | CCC(C)(C)C(=O)O[C@H]1C[C@@H](C)C=C2C=C[C@H](C)[C@H](CC[C@@H]3C[C@@H](O)CC(=O)O3)[C@H]21 [simvastatin, reference compound] | 53 | 128 | 114 |  |  |  | 
2 | CCN(C[C@H]1CC[C@H](CC(=O)O)CC1)c1cc(C)c(C(F)(F)F)cc1CN(Cc1cc(C(F)(F)F)cc(C(F)(F)F)c1)c1nnn(C)n1 [Example 168, trans-(4-{[N-(2-{[N′-[3,5-bis(trifluoromethyl)benzyl]-N′-(2-methyl-2H-tetrazol-5-yl)amino]methyl}-5-methyl-4-trifluoromethylphenyl)-N-ethylamino]methyl}cyclohexyl)acetic acid methanesulfonate] | 82 | 141 | 114 |  |  |  | 
3 | CCN(C[C@H]1CC[C@H](CC(=O)O)CC1)c1cc(C(F)(F)F)c(C)cc1CN(Cc1cc(C(F)(F)F)cc(C(F)(F)F)c1)c1nnn(C)n1.Cl [Example 143, trans-(4-{[N-(2-{[N′-[3,5-bis(trifluoromethyl)benzyl]-N′-(2-methyl-2H-tetrazol-5-yl)amino]methyl}-4-methyl-5-trifluoromethylphenyl)-N-ethylamino]methyl}cyclohexyl)acetic acid hydrochloride] |  |  |  | 42.2 | 7.00 | 17.0 | 21.3
